Experimental data published in US10925856B2, “Methods and compositions involving bucindolol for the treatment of atrial fibrillation” (priority 2018, dated 2021).

What was measured:
[1] = in vivo; cited from earlier work
[2] = Systolic blood pressure and heart rate by scheduled visit; format: in vivo, human
Description: Block is defined as the first of any of the following: 1) 3rd degree heart block (complete heart block); 2) any 2nd degree heart block with the presence of symptoms attributable to, and temporally correlated with the occurrence of heart block which include any of the following: Near-fainting or fainting (syncope)/Dizziness; Weakness or Fatigue; Shortness of breath; Chest pain; or 3) 2nd or 3rd degree heart block requiring implantation of a permanent pacemaker (with or without defibrillator). • Data source: • CVEVENT and AE eCRF forms. • Overall incidence and severity of treatment-emergent AEs/SAEs over time during the Total Study Period. Also events associated with device implantation. […] The AEs of special interest will be tabulated according to the following characteristics. • Development of treatment-emergent neoplastic conditions. • Progression or worsening of pre-study neoplastic conditions. • Progression or worsening of treatment-emergent neoplastic conditions. • Data source: • AE, NEOPLHX and NEOPLAS eCRF forms. • Clinical Chemistry and Hematology. • Visit collection: screen, start of follow-up Week 0 (protocol versions 1 and 2), Week 4 (protocol versions 3 and 4), Week 12 (protocol versions 3 and 4), Week 24, every 24 weeks during extension, end of treatment and end of study. […] Randomization Visit measurement prior to first dose will serve as the baseline. Will be analyzed at Week 0, 4, 12 and 24 visits as well as end of treatment and end of study. • Change from baseline to each analysis visit will be calculated and analyzed with descriptive statistics. • The numbers and percentages of patients with QTc increase from baseline exceeding 60 ms at any time point during the study. • Data source: • ECG eCRF form. • Vital signs and weight (data source: VITALS eCRF form). • Measured at every in-clinic visit. Randomization Visit measurement prior to first dose will serve as the baseline. Will be analyzed at Week 0, 4, 12 and 24 visits as well as end of treatment and end of study. • Change from baseline to each analysis visit will be calculated and analyzed with descriptive statistics. • Data source: • VITALS eCRF form. • Proportion of patients attaining target study drug dose during the Drug Titration Period. Will be calculated for all patients, those receiving β-blocker therapy prior to randomization and those not previously receiving β-blocker therapy. • Data Sources: • VISREC and DRUGLOG eCRF forms.

[3] = system: NT-proBNP; assay: Plasma NT-proBNP (electrochemiluminescence immunoassay)
[4] = Europe excluding Hungary (n = 48)
[5] = change from baseline, Canada (n = 59)
[6] = change from baseline, Entire Cohort (n = 267)
[7] = change from baseline, Europe excluding Hungary (n = 48)
[8] = change from baseline, Hungary (n = 33)
[9] = change from baseline, U.S. (n = 127)

CC(C)(Cc1c[nH]c2ccccc12)NCC(O)COc1ccccc1C#N (centres unmarked) [bucindolol, 2-(3-(1-(1H-indol-3-yl)-2-methylpropan-2-ylamino)-2-hydroxypropoxy)benzonitrile]
Bioavailability [1]: approximately 30%
Systolic Blood Pressure, Baseline Mean ± SEM ([2]; Baseline): 124.7 ± 1.3 mmHg
Heart Rate, Baseline Mean ± SEM ([2]; Baseline, by ECG): 76.5 ± 1.5 bpm
Systolic Blood Pressure, Mean ± SEM ([2]; Week 4 Change from Baseline): −0.3 ± 1.5 mmHg
Heart Rate, Mean ± SEM ([2]; Week 4 Change from Baseline, by ECG): 0.1 ± 1.6 bpm
Systolic Blood Pressure, Mean ± SEM ([2]; Week 12 Change from Baseline): −0.5 ± 1.8 mmHg
Heart Rate, Mean ± SEM ([2]; Week 12 Change from Baseline, by ECG): −1.5 ± 1.8 bpm
Systolic Blood Pressure, Mean ± SEM ([2]; Week 24 Change from Baseline): −1.1 ± 1.5 mmHg
Heart Rate, Mean ± SEM ([2]; Week 24 Change from Baseline, by ECG): 0.1 ± 2.3 bpm
NT-proBNP, Week 4 Mean ([3]; Canada): 859 pg/mL
NT-proBNP, Week 4 Median ([3]; Canada): 499 pg/mL
NT-proBNP, ΔWeek 4 Mean ± SEM ([3]; Canada): -455 pg/mL
NT-proBNP, ΔWeek 4 Median ([3]; Canada): -184 pg/mL
NT-proBNP, Baseline Mean ± SD ([3]; Canada (n = 59)): 1314 ± 1503 pg/mL
NT-proBNP, Baseline Median ([3]; Canada (n = 59)): 790 pg/mL
NT-proBNP, Week 12 Mean ± SD ([3]; Canada (n = 59)): 674 ± 767 pg/mL
NT-proBNP, Week 12 Median ([3]; Canada (n = 59)): 432 pg/mL
NT-proBNP, Week 24 Mean ± SD ([3]; Canada (n = 59)): 831 ± 961 pg/mL
NT-proBNP, Week 24 Median ([3]; Canada (n = 59)): 425 pg/mL
NT-proBNP, Week 4 Mean ([3]; Entire Cohort): 1196 pg/mL
NT-proBNP, Week 4 Median ([3]; Entire Cohort): 613 pg/mL
NT-proBNP, ΔWeek 4 Mean ± SEM ([3]; Entire Cohort): -0.4 pg/mL
NT-proBNP, ΔWeek 4 Median ([3]; Entire Cohort): -96 pg/mL
NT-proBNP, Baseline Mean ± SD ([3]; Entire Cohort (n = 267)): 1159 ± 1306 pg/mL
NT-proBNP, Baseline Median ([3]; Entire Cohort (n = 267)): 777 pg/mL
NT-proBNP, Week 12 Mean ± SD ([3]; Entire Cohort (n = 267)): 1052 ± 1923 pg/mL
NT-proBNP, Week 12 Median ([3]; Entire Cohort (n = 267)): 470 pg/mL
NT-proBNP, Week 24 Mean ± SD ([3]; Entire Cohort (n = 267)): 1135 ± 1632 pg/mL
NT-proBNP, Week 24 Median ([3]; Entire Cohort (n = 267)): 502 pg/mL
NT-proBNP, Week 4 Mean ([3]; Europe excluding Hungary): 756 pg/mL
NT-proBNP, Week 4 Median ([3]; Europe excluding Hungary): 431 pg/mL
NT-proBNP, ΔWeek 4 Mean ± SEM ([3]; Europe excluding Hungary): -72 pg/mL
NT-proBNP, ΔWeek 4 Median ([3]; Europe excluding Hungary): -108 pg/mL
NT-proBNP, Baseline Mean ± SD [3, 4]: 893 ± 849 pg/mL
NT-proBNP, Baseline Median [3, 4]: 600 pg/mL
NT-proBNP, Week 12 Mean ± SD [3, 4]: 782 pg/mL
NT-proBNP, Week 12 Median [3, 4]: 376 pg/mL
NT-proBNP, Week 24 Mean ± SD [3, 4]: 1859 pg/mL
NT-proBNP, Week 24 Median [3, 4]: 593 pg/mL
NT-proBNP, Week 4 Mean ([3]; Hungary): 1616 pg/mL
NT-proBNP, Week 4 Median ([3]; Hungary): 594 pg/mL
NT-proBNP, ΔWeek 4 Mean ± SEM ([3]; Hungary): +461 pg/ml
NT-proBNP, ΔWeek 4 Median ([3]; Hungary): -47 pg/mL
NT-proBNP, Baseline Mean ± SD ([3]; Hungary (n = 33)): 989 ± 1428 pg/mL
NT-proBNP, Baseline Median ([3]; Hungary (n = 33)): 567 pg/mL
NT-proBNP, Week 12 Mean ± SD ([3]; Hungary (n = 33)): 1095 ± 1929 pg/mL
NT-proBNP, Week 12 Median ([3]; Hungary (n = 33)): 446 pg/mL
NT-proBNP, Week 24 Mean ± SD ([3]; Hungary (n = 33)): 1244 ± 2515 pg/mL
NT-proBNP, Week 24 Median ([3]; Hungary (n = 33)): 244 pg/mL
NT-proBNP, Week 4 Mean ([3]; U.S.): 1501 pg/mL
NT-proBNP, Week 4 Median ([3]; U.S.): 796 pg/mL
NT-proBNP, ΔWeek 4 Mean ± SEM ([3]; U.S.): +182 pg/ml
NT-proBNP, ΔWeek 4 Median ([3]; U.S.): -75 pg/mL
NT-proBNP, Baseline Mean ± SD ([3]; U.S. (n = 127)): 1245 ± 1332 pg/mL
NT-proBNP, Baseline Median ([3]; U.S. (n = 127)): 904 pg/mL
NT-proBNP, Week 12 Mean ± SD ([3]; U.S. (n = 127)): 1383 ± 2538 pg/mL
NT-proBNP, Week 12 Median ([3]; U.S. (n = 127)): 561 pg/mL
NT-proBNP, Week 24 Mean ± SD ([3]; U.S. (n = 127)): 1124 ± 1516 pg/mL
NT-proBNP, Week 24 Median ([3]; U.S. (n = 127)): 653 pg/mL
NT-proBNP decrease ([3]; Week 24, Canadian cohort): −39%
NT-proBNP decrease relative to that in the metoprolol group ([3]; Week 24, Canadian cohort): ~3 fold
NT-proBNP, ΔWeek 12 Mean ± SEM [3, 5]: -602 ± 232 pg/mL
NT-proBNP, ΔWeek 12 Median [3, 5]: -176 pg/mL
NT-proBNP, ΔWeek 24 Mean ± SEM [3, 5]: -442 ± 223 pg/mL
NT-proBNP, ΔWeek 24 Median [3, 5]: -271 pg/mL
NT-proBNP, ΔWeek 12 Mean ± SEM [3, 6]: -108 ± 133 pg/mL
NT-proBNP, ΔWeek 12 Median [3, 6]: -96 pg/mL
NT-proBNP, ΔWeek 24 Mean ± SEM [3, 6]: -92 ± 136 pg/mL
NT-proBNP, ΔWeek 24 Median [3, 6]: -197 pg/mL
NT-proBNP, ΔWeek 12 Mean ± SEM [3, 7]: -101 pg/mL
NT-proBNP, ΔWeek 12 Median [3, 7]: -92 pg/mL
NT-proBNP, ΔWeek 24 Mean ± SEM [3, 7]: +983 pg/ml
NT-proBNP, ΔWeek 24 Median [3, 7]: -48 pg/mL
NT-proBNP, ΔWeek 12 Mean ± SEM [3, 8]: +40 ± 170 pg/ml
NT-proBNP, ΔWeek 12 Median [3, 8]: -96 pg/mL
NT-proBNP, ΔWeek 24 Mean ± SEM [3, 8]: +41 ± 276 pg/ml
NT-proBNP, ΔWeek 24 Median [3, 8]: -176 pg/mL
NT-proBNP, ΔWeek 12 Mean ± SEM [3, 9]: +130 ± 262 pg/ml
NT-proBNP, ΔWeek 12 Median [3, 9]: -81 pg/mL
NT-proBNP, ΔWeek 24 Mean ± SEM [3, 9]: -163 ± 161 pg/mL
NT-proBNP, ΔWeek 24 Median [3, 9]: -315 pg/mL
NT-proBNP, ΔWeek 4 Median ([3]; change from baseline, entire cohort): -96 pg/mL
NT-proBNP decrease ([3]; end of the 24-week follow-up period, U.S.): 33%
NT-proBNP decrease from baseline ([3]; week 4, entire cohort): 96 pg/mL
NT-proBNP decrease from baseline ([3]; week 12, entire cohort): 96 pg/mL
NT-proBNP decrease relative to baseline ([3]; week 24, entire cohort): 197 pg/mL
